Reference: ChEMBL document CHEMBL2413076, “Synthesis and biological evaluation of ursolic acid-triazolyl derivatives as potential anti-cancer agents” (Eur J Med Chem, 2013)

Experiments:
[1] = Growth inhibition of human FR2 cells after 48 hrs by sulforhodamine-B assay; assay type: cell-based; details: FR2, 48 h
THP-1 [2] = experiment: Growth inhibition of human THP1 cells after 48 hrs by sulforhodamine-B assay; assay type: functional, cell-based; details: THP-1, 48 h
MCF7 [3] = experiment: Growth inhibition of human MCF7 cells after 48 hrs by sulforhodamine-B assay; assay type: functional, cell-based; details: MCF7, 48 h
HCT-116 [4] = experiment: Growth inhibition of human HCT116 cells after 48 hrs by sulforhodamine-B assay; assay type: functional, cell-based; details: HCT-116, 48 h
A549 [5] = experiment: Growth inhibition of human A549 cells after 48 hrs by sulforhodamine-B assay; assay type: functional, cell-based; details: A549, 48 h
[6] = Growth inhibition of human FR2 cells assessed as dead cells at 10 uM after 48 hrs by sulforhodamine-B assay relative to control; assay type: cell-based; details: read-out: GI
THP-1 [7] = experiment: Growth inhibition of human THP1 cells assessed as dead cells at 10 uM after 48 hrs by sulforhodamine-B assay relative to control; assay type: functional; details: THP-1, 48 h, read-out: GI
HCT-116 [8] = experiment: Growth inhibition of human HCT116 cells assessed as dead cells at 10 uM after 48 hrs by sulforhodamine-B assay relative to control; assay type: functional; details: HCT-116, 48 h, read-out: GI
MCF7 [9] = experiment: Growth inhibition of human MCF7 cells assessed as dead cells at 10 uM after 48 hrs by sulforhodamine-B assay relative to control; assay type: functional; details: MCF7, 48 h, read-out: GI
A549 [10] = experiment: Growth inhibition of human A549 cells assessed as dead cells at 10 uM after 48 hrs by sulforhodamine-B assay relative to control; assay type: functional; details: A549, 48 h, read-out: GI
[11] = Growth inhibition of human FR2 cells assessed as dead cells at 50 uM after 48 hrs by sulforhodamine-B assay relative to control; assay type: cell-based; details: read-out: GI
A549 [12] = experiment: Growth inhibition of human A549 cells assessed as dead cells at 50 uM after 48 hrs by sulforhodamine-B assay relative to control; assay type: functional; details: A549, 48 h, read-out: GI
MCF7 [13] = experiment: Growth inhibition of human MCF7 cells assessed as dead cells at 50 uM after 48 hrs by sulforhodamine-B assay relative to control; assay type: functional; details: MCF7, 48 h, read-out: GI
HCT-116 [14] = experiment: Growth inhibition of human HCT116 cells assessed as dead cells at 50 uM after 48 hrs by sulforhodamine-B assay relative to control; assay type: functional; details: HCT-116, 48 h, read-out: GI
THP-1 [15] = experiment: Growth inhibition of human THP1 cells assessed as dead cells at 50 uM after 48 hrs by sulforhodamine-B assay relative to control; assay type: functional; details: THP-1, 48 h, read-out: GI
MCF7 [16] = experiment: Growth inhibition of human MCF7 cells assessed as dead cells at 1 uM after 48 hrs by sulforhodamine-B assay relative to control; assay type: functional; details: MCF7, 48 h, read-out: GI
A549 [17] = experiment: Growth inhibition of human A549 cells assessed as dead cells at 1 uM after 48 hrs by sulforhodamine-B assay relative to control; assay type: functional; details: A549, 48 h, read-out: GI
HCT-116 [18] = experiment: Growth inhibition of human HCT116 cells assessed as dead cells at 20 uM after 48 hrs by sulforhodamine-B assay relative to control; assay type: functional; details: HCT-116, 48 h, read-out: GI
THP-1 [19] = experiment: Growth inhibition of human THP1 cells assessed as dead cells at 20 uM after 48 hrs by sulforhodamine-B assay relative to control; assay type: functional; details: THP-1, 48 h, read-out: GI
A549 [20] = experiment: Growth inhibition of human A549 cells assessed as dead cells at 20 uM after 48 hrs by sulforhodamine-B assay relative to control; assay type: functional; details: A549, 48 h, read-out: GI

SMILES	IC50 [1] [µM]	IC50 (THP-1 [2]) [µM]	IC50 (MCF7 [3]) [µM]	IC50 (HCT-116 [4]) [µM]	IC50 (A549 [5]) [µM]	inhibition at 48 h, 10 µM [6] [%]	inhibition of growth at 10 µM (THP-1 [7]) [%]	inhibition of growth at 10 µM (HCT-116 [8]) [%]	inhibition of growth at 10 µM (MCF7 [9]) [%]	inhibition of growth at 10 µM (A549 [10]) [%]	inhibition at 48 h, 50 µM [11] [%]	inhibition of growth at 50 µM (A549 [12]) [%]	inhibition of growth at 50 µM (MCF7 [13]) [%]	inhibition of growth at 50 µM (HCT-116 [14]) [%]	inhibition of growth at 50 µM (THP-1 [15]) [%]	inhibition of growth at 1 µM (MCF7 [16]) [%]	inhibition of growth at 1 µM (A549 [17]) [%]	inhibition of growth at 20 µM (HCT-116 [18]) [%]	inhibition of growth at 20 µM (THP-1 [19]) [%]	inhibition of growth at 20 µM (A549 [20]) [%]
C[C@H]1[C@H](C)CC[C@]2(C(=O)OCc3cn(-c4ccc(Br)cc4)nn3)CC[C@]3(C)C(=CC[C@@H]4[C@@]5(C)CCC(=O)C(C)(C)[C@@H]5CC[C@]43C)[C@H]12	19	1	15	1.7	18	58	74	80	44	45	93	63	78	92	95					
CO[C@@]12[C@H](COC(N)=O)C3=C(C(=O)C(C)=C(N)C3=O)N1C[C@@H]1N[C@@H]12 [MITOMYCIN]																82	70			
C[C@H]1[C@H](C)CC[C@]2(C(=O)OCc3cn(-c4ccccc4[N+](=O)[O-])nn3)CC[C@]3(C)C(=CC[C@@H]4[C@@]5(C)CCC(=O)C(C)(C)[C@@H]5CC[C@]43C)[C@H]12	> 50	48	> 50	14	> 50	9	24	45	4	3	12	39	42	65	54					
C[C@H]1[C@H](C)CC[C@]2(C(=O)OCc3cn(-c4ccccc4Cl)nn3)CC[C@]3(C)C(=CC[C@@H]4[C@@]5(C)CCC(=O)C(C)(C)[C@@H]5CC[C@]43C)[C@H]12	> 50	< 0.1	< 0.1	9.1	0.15	9	80	54	81	77	35	91	95	93	96					
C[C@H]1[C@H](C)CC[C@]2(C(=O)OCc3cn(-c4ccccc4I)nn3)CC[C@]3(C)C(=CC[C@@H]4[C@@]5(C)CCC(=O)C(C)(C)[C@@H]5CC[C@]43C)[C@H]12	35	9.4	13	15	19	36	56	44	54	43	56	67	76	78	79					
O=c1[nH]cc(F)c(=O)[nH]1 [FLUOROURACIL]																		76	96	86
C[C@H]1[C@H](C)CC[C@]2(C(=O)OCc3cn(-c4ccc(CC#N)cc4)nn3)CC[C@]3(C)C(=CC[C@@H]4[C@@]5(C)CCC(=O)C(C)(C)[C@@H]5CC[C@]43C)[C@H]12	46	37	79	19	> 100	14	32	44	17	13	46	26	34	67	55					
C[C@H]1[C@H](C)CC[C@]2(C(=O)OCc3cn(-c4ccc(F)cc4F)nn3)CC[C@]3(C)C(=CC[C@@H]4[C@@]5(C)CCC(=O)C(C)(C)[C@@H]5CC[C@]43C)[C@H]12	44	1.1	30	0.47	6.4	2	82	69	17	57	78	64	73	91	86					
